Assay results reported in patent publication USRE48267E1, “Variants of C-type natriuretic peptide” (priority 2009, dated 2020).
Where a SMILES comes first, the peptide text is derived from it. Bridges are numbered along the chain shown (N, C = ends). Where no end group is shown, it is not given here. [ ]: non-standard residue; d: D form. The star is where a group is joined. Cit = NC(=O)NCCC[C@H](N)C(=O)O; Heptanoyl = CCCCCCC(=O)*

Legend:
NPR-B = target: T1, NPR-B (Mus musculus, UniProt Q6VVW5); assay: stimulation of cGMP production in NIH3T3 cells; type: cell-based, murine; details: for cGMP Response rel. to 1 uM CNP22, 10 nM: NIH3T3 cells exposed to 10 nM peptide; for cGMP Response rel. to 1 uM CNP22, 10 nM / cGMP Response rel. to 1 uM CNP22, 1 uM: normalized to cell number and cGMP production in the presence of 1 uM wtCNP22; for cGMP Response rel. to 1 uM CNP22, 1 uM: NIH3T3 cells exposed to 1 uM peptide; for NPR-B stimulation activity / cGMP production compared with wtCNP22 (in words): NIH3T3 cells
T1 construct: Murine NIH3T3 cells express endogenously the CNP signaling receptor, NPR-B; endogenous in cells; host or cells: NIH3T3
T1 sequence (Q6VVW5 17-1047): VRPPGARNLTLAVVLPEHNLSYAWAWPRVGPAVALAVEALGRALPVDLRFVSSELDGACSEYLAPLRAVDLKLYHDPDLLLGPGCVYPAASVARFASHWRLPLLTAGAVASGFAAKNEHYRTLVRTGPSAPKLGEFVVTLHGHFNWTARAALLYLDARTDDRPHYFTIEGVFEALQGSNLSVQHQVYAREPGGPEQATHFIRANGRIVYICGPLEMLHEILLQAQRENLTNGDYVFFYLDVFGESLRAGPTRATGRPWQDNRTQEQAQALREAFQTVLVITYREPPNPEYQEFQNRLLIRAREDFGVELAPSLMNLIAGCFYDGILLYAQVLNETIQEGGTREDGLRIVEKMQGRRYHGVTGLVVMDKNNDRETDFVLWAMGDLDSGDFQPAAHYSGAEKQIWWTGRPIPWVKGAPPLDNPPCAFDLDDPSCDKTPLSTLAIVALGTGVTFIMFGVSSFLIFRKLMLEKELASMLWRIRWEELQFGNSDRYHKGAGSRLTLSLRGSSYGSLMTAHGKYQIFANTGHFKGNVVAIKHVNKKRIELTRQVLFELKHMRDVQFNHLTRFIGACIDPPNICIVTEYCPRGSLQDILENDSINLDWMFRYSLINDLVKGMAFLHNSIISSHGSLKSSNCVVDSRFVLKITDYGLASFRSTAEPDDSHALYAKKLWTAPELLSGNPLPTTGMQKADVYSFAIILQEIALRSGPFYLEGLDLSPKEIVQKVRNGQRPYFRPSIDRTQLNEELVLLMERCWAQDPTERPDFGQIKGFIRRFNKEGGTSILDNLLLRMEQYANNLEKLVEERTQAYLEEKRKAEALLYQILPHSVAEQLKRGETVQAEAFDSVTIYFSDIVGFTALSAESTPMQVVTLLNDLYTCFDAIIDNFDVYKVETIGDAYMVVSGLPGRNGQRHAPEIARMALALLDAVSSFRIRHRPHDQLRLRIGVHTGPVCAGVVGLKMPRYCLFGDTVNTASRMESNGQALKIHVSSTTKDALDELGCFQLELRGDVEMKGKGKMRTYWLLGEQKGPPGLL
Experimental: To determine the functional activity of CNP variants, the production of cGMP was measured in NIH3T3 cells exposed to the CNP variants. Murine NIH3T3 cells express endogenously the CNP signaling receptor, NPR-B, which shares 98% protein sequence identity with human NPR-B. NIH3T3 cells were cultured in high glucose Dulbecco's Modified Eagle Medium supplemented with 10% fetal calf serum and antibiotics at 37° C. with 5% CO2). Twenty four to 48 hours prior to signaling, cells were passaged to 12-well plates with a density of 2-5×10^5 cells per well at the time of the assay. CNP variants were resuspended in 1 mM HCl to a stock concentration of 1 mg/mL (455 uM for wtCNP22) and subsequently diluted to a 30 uM working stock solution with phosphate-buffered saline (PBS). Ten-fold serial dilutions were prepared in phosphate-buffered saline. Culture medium was removed from the cells and replaced with 0.4 mL PBS/Dulbecco's modified Eagle medium (50/50, v/v) containing 0.75 mM isobutylmethylxanine. Plates were incubated at 37° C., 5% CO2 for 15 minutes before addition of 0.2 mL CNP variant in PBS and continued incubation at 37° C. for 15 minutes. Reactions were stopped by the addition of 0.2 mL lysis buffer supplied with the CatchPoint cGMP assay kit (Molecular Devices), and cGMP production was determined with the CatchPoint cGMP Assay (Molecular Devices). All stimulation experiments were performed in duplicate.
Tables 1-4 summarize the ability of CNP variants having backbone or side chain modifications, amino acid substitutions, N-terminal amino acid extensions, and/or N-terminal PEGylation, respectively, to stimulate cGMP production in NIH3T3 cells. In all four tables, the values for cGMP production in NIH3T3 cells exposed to 10 nM or 1 uM CNP variant are normalized to cell number and cGMP production in the presence of 1 uM wtCNP22.

Recombinant human NEP = Recombinant human NEP (Homo sapiens, UniProt P08473); assay: in vitro NEP cleavage assay (disappearance of non-cleaved CNP variant); details: 100 uM peptide, 1 ug/mL NEP, 0.1 M Tris pH 7, 37° C.; adjusted t1/2, CNP22 normalized to 80 min
Experimental: To determine the effects of amino acid substitutions, amino acid extensions, backbone modifications, side chain modifications and PEGylation on the susceptibility of CNP variants to neutral endopeptidase (NEP) cleavage, peptide cleavage assays were carried out using an in vitro assay that monitored disappearance of the non-cleaved CNP variant.
Recombinant human NEP (1 ug/mL final concentration) was added to 100 uM CNP variant diluted in 0.1 M Tris, pH 7. The reaction mixture was incubated at 37° C. for various periods of time, and the reaction was quenched with EDTA (10 mM final) followed by heat denaturation. The reaction mixture was reduced and then the reaction products were analyzed using HPLC and mass spectroscopy. The half-life of the CNP variant was calculated based on the disappearance of intact CNP variant over time.

Chain of Recombinant human NEP (P08473 whole entry): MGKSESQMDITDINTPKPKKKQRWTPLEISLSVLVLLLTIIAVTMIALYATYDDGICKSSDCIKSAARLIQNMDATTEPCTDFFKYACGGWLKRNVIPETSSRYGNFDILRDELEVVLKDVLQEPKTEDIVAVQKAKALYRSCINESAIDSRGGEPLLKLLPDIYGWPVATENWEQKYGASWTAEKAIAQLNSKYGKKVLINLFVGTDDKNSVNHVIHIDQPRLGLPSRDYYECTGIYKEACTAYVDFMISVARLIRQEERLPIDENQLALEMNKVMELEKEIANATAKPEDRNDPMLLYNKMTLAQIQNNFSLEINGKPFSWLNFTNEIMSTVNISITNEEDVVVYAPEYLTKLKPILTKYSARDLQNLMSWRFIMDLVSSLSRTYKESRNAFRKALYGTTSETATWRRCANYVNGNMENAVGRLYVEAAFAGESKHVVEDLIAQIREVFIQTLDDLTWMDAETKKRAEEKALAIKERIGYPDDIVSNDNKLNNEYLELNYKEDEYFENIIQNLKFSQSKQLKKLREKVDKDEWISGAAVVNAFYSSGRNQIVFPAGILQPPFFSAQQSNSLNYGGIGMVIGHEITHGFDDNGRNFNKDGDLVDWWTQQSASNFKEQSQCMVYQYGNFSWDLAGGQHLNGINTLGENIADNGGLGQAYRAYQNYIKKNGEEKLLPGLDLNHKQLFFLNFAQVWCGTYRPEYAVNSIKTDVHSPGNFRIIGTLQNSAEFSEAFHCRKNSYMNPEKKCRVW

Compound	cGMP Response rel. to 1 uM CNP22, 10 nM (NPR-B)	cGMP Response rel. to 1 uM CNP22, 1 uM (NPR-B)	NPR-B stimulation activity / cGMP production compared with wtCNP22 (in words) (NPR-B)	NEP Cleavage (t1/2, min) (Recombinant human NEP) [min]
CC[C@H](C)[C@@H]1NC(=O)[C@H](CCCNC(=N)N)NC(=O)[C@H](CC(=O)O)NC(=O)[C@H](CC(C)C)NC(=O)[C@H](CCCCN)NC(=O)[C@H](CC(C)C)NC(=O)CNC(=O)[C@H](Cc2ccccc2)NC(=O)[C@@H](NC(=O)CNC(=O)[C@H](CCCCN)NC(=O)[C@H](CO)NC(=O)[C@H](CC(C)C)NC(=O)CNC(=O)[C@H](CCC(N)=O)NC(=O)[C@H](CCC(N)=O)NC(=O)[C@H](CC(N)=O)NC(=O)[C@H](C)NC(=O)CNC(=O)[C@H](Cc2c[nH]cn2)NC(=O)[C@@H](NC(=O)[C@H](CC(=O)O)NC(=O)[C@H](Cc2c[nH]cn2)NC(=O)[C@H](CCC(=O)O)NC(=O)[C@H](Cc2c[nH]cn2)NC(=O)[C@@H]2CCCN2C(=O)[C@H](Cc2c[nH]cn2)NC(=O)[C@H](Cc2c[nH]cn2)NC(=O)[C@H](C)NC(=O)CN)[C@@H](C)O)CSSC[C@@H](C(=O)O)NC(=O)CNC(=O)[C@H](CC(C)C)NC(=O)CNC(=O)[C@H](CO)NC(=O)[C@H](CCSC)NC(=O)[C@H](CO)NC(=O)CNC1=O [Analog CR] (H-GAHHPHEHDTHGANQQGLSKGCFGLKLDRIGSMSGLGC-OH; disulfide 22-38; N-terminus and C-terminus assumed)	14 ± 5	77 ± 12	–	–
CC[C@H](C)[C@@H]1NC(=O)[C@H](CCCNC(=N)N)NC(=O)[C@H](CC(=O)O)NC(=O)[C@H](CC(C)C)NC(=O)[C@H](CCCCN)NC(=O)[C@H](CC(C)C)NC(=O)CNC(=O)[C@H](Cc2ccccc2)NC(=O)[C@@H](NC(=O)CNC(=O)[C@H](CCCNC(=N)N)NC(=O)[C@H](CO)NC(=O)[C@H](CC(C)C)NC(=O)CN)CSSC[C@@H](C(=O)O)NC(=O)CNC(=O)[C@H](CC(C)C)NC(=O)CNC(=O)[C@H](CO)NC(=O)[C@H](CCSC)NC(=O)[C@H](CO)NC(=O)[C@H](CCCNC(=N)N)NC1=O [Analog AE, CNP22, K4R, G15R] (H-GLSRGCFGLKLDRIRSMSGLGC-OH; disulfide 6-22)	0.3	0.3	–	–
CCCCCCC(=O)N[C@@H](CCC(=O)O)C(=O)N[C@@H](CC(C)C)C(=O)N[C@@H](CO)C(=O)N[C@@H](CCCCN)C(=O)NCC(=O)N[C@H]1CSSC[C@@H](C(=O)O)NC(=O)CNC(=O)[C@H](CC(C)C)NC(=O)CNC(=O)[C@H](CO)NC(=O)[C@H](CCSC)NC(=O)[C@H](CO)NC(=O)CNC(=O)[C@H]([C@@H](C)CC)NC(=O)[C@H](CCCNC(=N)N)NC(=O)[C@H](CC(=O)O)NC(=O)[C@H](CC(C)C)NC(=O)[C@H](CCCCN)NC(=O)[C@H](CC(C)C)NC(=O)CNC(=O)[C@H](Cc2ccccc2)NC1=O [Analog BB, Heptanoic acid (N-term.)-CNP22, G1E] (Heptanoyl-ELSKGCFGLKLDRIGSMSGLGC-OH; disulfide 6-22)	32 ± 4	84 ± 19	comparable NPR-B stimulation activity as wtCNP22	45 to 65
SPKMVQGSG-CNP17-KVLRRH (SPKMVQGSGCFGLKLDRIGSMSGLGCKVLRRH; disulfide 10-26 (inferred); ends not checked) [Analog CD]	–	–	comparable NPR-B stimulation activity as wtCNP22	–
CC[C@H](C)[C@@H]1NC(=O)[C@H](CCCNC(=N)N)NC(=O)[C@H](CC(=O)O)NC(=O)[C@H](CC(C)C)NC(=O)[C@H](CCCCN)NC(=O)[C@H](CC(C)C)NC(=O)CNC(=O)[C@H](Cc2ccccc2)NC(=O)[C@@H](NC(=O)CNC(=O)[C@H](CCCNC(=N)N)NC(=O)[C@H](CO)NC(=O)[C@H](CC(C)C)NC(=O)CN)CSSC[C@@H](C(=O)O)NC(=O)CNC(=O)[C@H](CC(C)C)NC(=O)CNC(=O)[C@H](CO)NC(=O)[C@H](C(C)C)NC(=O)[C@H](CO)NC(=O)CNC1=O [Analog AG, CNP22, K4R, M17V] (H-GLSRGCFGLKLDRIGSVSGLGC-OH; disulfide 6-22)	10	65	–	–
CC[C@H](C)[C@@H]1NC(=O)[C@H](CCCNC(=N)N)NC(=O)[C@H](CC(=O)O)NC(=O)[C@H](CC(C)C)NC(=O)[C@H](CCCCN)NC(=O)[C@H](CC(C)C)NC(=O)CNC(=O)[C@H](Cc2ccccc2)NC(=O)[C@@H](NC(=O)CNC(=O)[C@H](CCCNC(=N)N)NC(=O)[C@H](CO)NC(=O)[C@H](CC(C)C)NC(=O)CN)CSSC[C@@H](C(=O)O)NC(=O)CNC(=O)[C@H](CC(C)C)NC(=O)CNC(=O)[C@H](CO)NC(=O)[C@H](CCSC)NC(=O)[C@H](CO)NC(=O)[C@H](CCCNC(N)=O)NC1=O [Analog AF, CNP22, K4R, G15Cit] (H-GLSRGCFGLKLDRI[Cit]SMSGLGC-OH; disulfide 6-22)	1.4	2	–	–
CC[C@H](C)[C@@H]1NC(=O)[C@H](CCCNC(=N)N)NC(=O)[C@H](CC(=O)O)NC(=O)[C@H](CC(C)C)NC(=O)[C@H](CCCCN)NC(=O)[C@H](CC(C)C)NC(=O)CNC(=O)[C@H](Cc2ccccc2)NC(=O)[C@@H](NC(=O)CNC(=O)[C@H](CCCCN)NC(=O)[C@H](CO)NC(=O)[C@H](CC(C)C)NC(=O)CNC(=O)[C@H](CCC(N)=O)NC(=O)[C@H](CCC(N)=O)NC(=O)[C@H](CC(N)=O)NC(=O)[C@H](C)NC(=O)CNC(=O)[C@H](Cc2c[nH]cn2)NC(=O)[C@@H]2CCCN2C(=O)[C@H](Cc2c[nH]cn2)NC(=O)[C@H](CCC(N)=O)NC(=O)[C@H](CCC(=O)O)NC(=O)[C@H](Cc2c[nH]cn2)NC(=O)[C@H](CO)NC(=O)[C@H](Cc2c[nH]cn2)NC(=O)[C@H](Cc2c[nH]cn2)NC(=O)CN)CSSC[C@@H](C(=O)O)NC(=O)CNC(=O)[C@H](CC(C)C)NC(=O)CNC(=O)[C@H](CO)NC(=O)[C@H](CCSC)NC(=O)[C@H](CO)NC(=O)CNC1=O [Analog CQ] (H-GHHSHEQHPHGANQQGLSKGCFGLKLDRIGSMSGLGC-OH; disulfide 21-37; N-terminus and C-terminus assumed)	16	95	–	–
